Source: the supplement of paper PMC11451515

Legend:
Details in all cases: 48 h
NOMO1 [1] = experiment: cell viability relative to DMSO control; higher = less cytotoxic
In short: (§1)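 Viability is expressed as a percentage of DMSO wells within each plate, and cell-free wells serve as background. Seeding densities in the 1536-well plates (5 μl) were 500 cells/well for NOMO1 or SEM leukemia cells and 1000 cells/well for P12-Ichikawa. Each line was adapted for at least four passages in each medium. Library compounds in DMSO were pin-dosed at 47 μM to 0.79 nM (11 points, threefold), and CellTiter-Glo One luminescence was read after 48 h at 37°C.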

P12-Ichikawa [2] = experiment: as above
In short: as §1

NOMO1 [3] = experiment: AUC of viability dose-response curve (% viability x log10 dose units); higher = less sensitive
In short: (§2)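 Medium-adapted leukemia cells in 1536-well plates, at 500 or 1000 cells/well, were incubated for 48 h at 37°C with library compounds in DMSO at 11 threefold doses from 47 μM to 0.79 nM. CellTiter-Glo One luminescence normalised per plate to DMSO and cell-free wells was fitted with a four-parameter log-logistic model over log10 doses. Area under the curve was integrated from this fit by trapezoidal rule, with curves beyond full viability scaled and failed quality-control curves removed.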

P12-Ichikawa [4] = experiment: as above
In short: as §2

SEM cells = experiment: cell viability relative to DMSO control; higher = less cytotoxic
In short: as §1

OC(=O)\C1=C\N(C2CC2)C3=CC(=C(F)C=C3C1=O)N4CCNCC4
cell viability [%]
Details | HPLM + 10% dialyzed FBS | RPMI 5 mM glucose + 10% FBS | RPMI 5 mM glucose + 10% dialyzed FBS
NOMO1 [1], 0.000781 µM | 108 | 116 | 112
NOMO1 [1], 0.00234 µM | 117 | 126 | 132
NOMO1 [1], 0.00702 µM | 119 | 104 | 119
NOMO1 [1], 0.0211 µM | 129 | 118 | 116
NOMO1 [1], 0.0632 µM | 113 | 119 | 120
NOMO1 [1], 0.19 µM | 127 | 113 | 122
NOMO1 [1], 0.569 µM | 118 | 128 | 117
NOMO1 [1], 1.71 µM | 134 | 118 | 123
NOMO1 [1], 5.12 µM | 64.4 | 90 | 88.1
NOMO1 [1], 15.4 µM | 47.5 | 75.1 | 63.5
NOMO1 [1], 46.1 µM | 22.5 | 23.5 | 33.9
P12-Ichikawa [2], 0.000781 µM | 110 | 102 | 99.4
P12-Ichikawa [2], 0.00234 µM | 114 | 104 | 106
P12-Ichikawa [2], 0.00702 µM | 114 | 115 | 113
P12-Ichikawa [2], 0.0211 µM | 111 | 108 | 111
P12-Ichikawa [2], 0.0632 µM | 112 | 112 | 112
P12-Ichikawa [2], 0.19 µM | 112 | 113 | 108
P12-Ichikawa [2], 0.569 µM | 115 | 115 | 113
P12-Ichikawa [2], 1.71 µM | 113 | 100 | 114
P12-Ichikawa [2], 5.12 µM | 96.6 | 104 | 99.4
P12-Ichikawa [2], 15.4 µM | 91.9 | 92.3 | 90.5
P12-Ichikawa [2], 46.1 µM | 68.7 | 63.9 | 64.7

AUC of viability dose-response curve
Details | HPLM + 10% dialyzed FBS | RPMI 5 mM glucose + 10% FBS | RPMI 5 mM glucose + 10% dialyzed FBS
NOMO1 [3] | 404 | 428 | 422
P12-Ichikawa [4] | 451 | 456 | 455

Oc1ccc(OCc2ccccc2)cc1
cell viability [%]
Details | NOMO1 [1] | P12-Ichikawa [2] | SEM cells
HPLM + 10% dialyzed FBS, 0.000781 µM | 108 | 114 | 89.8
HPLM + 10% dialyzed FBS, 0.00234 µM | 131 | 114 | 106
HPLM + 10% dialyzed FBS, 0.00702 µM | 116 | 119 | 98.9
HPLM + 10% dialyzed FBS, 0.0211 µM | 106 | 105 | 113
HPLM + 10% dialyzed FBS, 0.0632 µM | 132 | 119 | 20.8
HPLM + 10% dialyzed FBS, 0.19 µM | 108 | 102 | 103
HPLM + 10% dialyzed FBS, 0.569 µM | 102 | 115 | 106
HPLM + 10% dialyzed FBS, 1.71 µM | 107 | 103 | 97.1
HPLM + 10% dialyzed FBS, 5.12 µM | 105 | 90.1 | 92.5
HPLM + 10% dialyzed FBS, 15.4 µM | 79.7 | 69.9 | 47.7
HPLM + 10% dialyzed FBS, 46.1 µM | 48.6 | 65.3 | 28.7
RPMI 5 mM glucose + 10% FBS, 0.000781 µM | 119 | 114 | 103
RPMI 5 mM glucose + 10% FBS, 0.00234 µM | 113 | 116 | 106
RPMI 5 mM glucose + 10% FBS, 0.00702 µM | 127 | 111 | 108
RPMI 5 mM glucose + 10% FBS, 0.0211 µM | 120 | 127 | 110
RPMI 5 mM glucose + 10% FBS, 0.0632 µM | 114 | 106 | 13.6
RPMI 5 mM glucose + 10% FBS, 0.19 µM | 127 | 114 | 113
RPMI 5 mM glucose + 10% FBS, 0.569 µM | 105 | 109 | 114
RPMI 5 mM glucose + 10% FBS, 1.71 µM | 104 | 93.7 | 104
RPMI 5 mM glucose + 10% FBS, 5.12 µM | 101 | 83.4 | 77.6
RPMI 5 mM glucose + 10% FBS, 15.4 µM | 110 | 68.4 | 58.3
RPMI 5 mM glucose + 10% FBS, 46.1 µM | 87.8 | 64.8 | 31.6
RPMI 5 mM glucose + 10% dialyzed FBS, 0.000781 µM | 110 | 105 | 112
RPMI 5 mM glucose + 10% dialyzed FBS, 0.00234 µM | 116 | 115 | 114
RPMI 5 mM glucose + 10% dialyzed FBS, 0.00702 µM | 105 | 114 | 130
RPMI 5 mM glucose + 10% dialyzed FBS, 0.0211 µM | 112 | 117 | 119
RPMI 5 mM glucose + 10% dialyzed FBS, 0.0632 µM | 108 | 106 | 47.4
RPMI 5 mM glucose + 10% dialyzed FBS, 0.19 µM | 106 | 115 | 109
RPMI 5 mM glucose + 10% dialyzed FBS, 0.569 µM | 114 | 107 | 126
RPMI 5 mM glucose + 10% dialyzed FBS, 1.71 µM | 113 | 86.5 | 109
RPMI 5 mM glucose + 10% dialyzed FBS, 5.12 µM | 116 | 75.2 | 98.9
RPMI 5 mM glucose + 10% dialyzed FBS, 15.4 µM | 89.9 | 52.4 | 69.2
RPMI 5 mM glucose + 10% dialyzed FBS, 46.1 µM | 60.7 | 44.6 | 30.3

AUC of viability dose-response curve
Details | HPLM + 10% dialyzed FBS | RPMI 5 mM glucose + 10% FBS | RPMI 5 mM glucose + 10% dialyzed FBS
NOMO1 [3] | 441 | 444 | 457
P12-Ichikawa [4] | 435 | 420 | 407
